Our source for the IC50 values is patent publication US20230406885A1, “CYCLIC PEPTIDES FOR TRAPPING INTERLEUKIN-1 BETA” (MERCK SHARP & DOHME LLC, priority 2022, published 2023).

pIC50: −log10 of the molar value. *1 amine or outer side, *2 acyl side, *3 side chain or, on linkers, in order; H or OH if unused. Where a SMILES comes first, the peptide text is derived from it. [ ]: non-standard residue; d: D form. Trp(βS-Me,4-F) = C[C@@H](c1c[nH]c2cccc(F)c12)[C@H](N)C(=O)O; Bip(4'-COOH) = N[C@@H](Cc1ccc(-c2ccc(C(=O)O)cc2)cc1)C(=O)O; X2 = O=C(O)c1ccc(-c2ccc(C[C@H](N[*:1])C(=O)[*:2])cn2)cc1; X1 = CC(=O)N1CCN(c2ccc(C[C@H](N[*:1])C(=O)[*:2])cn2)CC1; 1Nal(3S-Me) = C[C@@H](c1cccc2ccccc12)[C@H](N)C(=O)O; X12 = CC(=O)NCCOc1ccc(C[C@H](N[*:1])C(=O)[*:2])cn1; Phe(4-COOH) = N[C@@H](Cc1ccc(C(=O)O)cc1)C(=O)O; h3Pal(5-CN) = N#Cc1cncc(CC[C@H](N)C(=O)O)c1; Pro(4R-NH2) = N[C@H]1CN[C@H](C(=O)O)C1; hTyr = N[C@@H](CCc1ccc(O)cc1)C(=O)O; 4Pal = N[C@@H](Cc1ccncc1)C(=O)O; dDab = NCC[C@@H](N)C(=O)O; dNMeA = CN[C@H](C)C(=O)O; Dap = NC[C@H](N)C(=O)O

For this test, the target named is T1, Recombinant human IL-1β (Homo sapiens, UniProt P01584).
T1 construct: purchased BioLegend 579404
T1 sequence (P01584 117-269): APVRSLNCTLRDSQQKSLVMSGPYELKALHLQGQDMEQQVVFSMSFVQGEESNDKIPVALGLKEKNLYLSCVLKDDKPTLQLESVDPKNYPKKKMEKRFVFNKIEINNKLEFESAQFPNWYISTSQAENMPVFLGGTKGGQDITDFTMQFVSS
The experiment in a line: IL-6 assay in MRC5 cells: inhibition of IL-1β induced IL-6 secretion (AlphaLISA). In kind it is cell-based. The conditions noted are these: inhibition of IL-1β induced IL-6 secretion in MRC5 cells; IL-1β pre-incubated 1 hour with compound; read-out: MRC5 IC50. How it is done: Procedure for IL-6 Assay in MRC5 Cells
The inhibition of IL-1β induced IL-6 secretion was evaluated in MRC5 cells. Recombinant human IL-1β (BioLegend 579404) at 2×EC80 concentration was prepared in seeding medium, EMEM (ATCC 30-2003) with 0.025% BSA (Sigma A9576), 1× penicillin/streptomycin (Gibco 15070-063), 1×NEAA (Gibco 11140-050), 1× GlutaMax (Gibco 35050-061), and 1× sodium pyruvate (Gibco 11360-070). 20 μL of IL-1β was added to a 384-well collagen-coated plate (Corning 354664) and pre-incubated at ambient temperature for 1 hour with 200 nL of compound dispensed using an ECHO 555 liquid handler. Human lung fibroblast MRC5 cells (ATCC CCL-171) were added at a density of 3000 cells/20 μL per well. The cells were prepared by passaging three times in growth medium, EMEM (ATCC 30-2003) with 10% fetal bovine serum (Gibco 16140-071), 1× penicillin/streptomycin (Gibco 15070-063), 1×NEAA (Gibco 11140-050), 1× GlutaMax (Gibco 35050-061), and 1× sodium pyruvate (Gibco 11360-070) in collagen-coated T175 flasks (Greiner 661950) and harvested in seeding medium after 5 minutes of 0.25% trypsin-EDTA (Gibco 25200-056) digestion. The 384-well collagen-coated plate, containing a final volume of 40 μL, was incubated at 37° C., 5% CO2 overnight. 5 μL of the conditioned medium was transferred to a 384-well AlphaLISA plate (PerkinElmer 6005350) for detection of IL-6 using the human AlphaLISA IL-6 kit (PerkinElmer AL223F) as per the manufacturer's protocol. 20 μL of the acceptor bead/biotinylated antibody mix was added to the 384-well AlphaLISA plate and incubated for 1 hour at ambient temperature. The donor bead mix was protected from light and 25 μL was added to the plate and incubated for 30 minutes at ambient temperature. The AlphaLISA plate was read on an EnVision multimode plate reader (Perkin Elmer model 2104) using the AlphaScreen setting (laser exc at 680 nm and emis at 570 nm). Dose response curves and IC50 values were analyzed using a 4-parameter logistic equation in Spotfire software (Tibco, Palo Alto, CA).
A general note: Bead proximity is the source of the signal in Alpha formats.
For the compound `CC(=O)N1CCN(c2ccc(C[C@@H]3NC(=O)[C@H](CCc4cncc(C#N)c4)NC(=O)[C@@H](C)NC(=O)[C@H](CN)NC(=O)[C@H](Cc4ccncc4)NC(=O)[C@H](Cc4ccc(-c5ccc(C(=O)O)cc5)cc4)NC(=O)CNC(=O)[C@@H](C)N(C)C(=O)[C@H](CC(=O)O)NC(=O)[C@H]([C@@H](C)c4cccc5ccccc45)NC(=O)[C@@H]4C[C@@H](N)CN4C(=O)CNC(=O)[C@H](Cc4ccc(C(=O)O)cc4)NC(=O)[C@H](Cc4c[nH]c5ccccc45)NC3=O)cn2)CC1` [Example 1] (cyclo([X1]W[Phe(4-COOH)]G[Pro(4R-NH2)][1Nal(3S-Me)]D[dNMeA]G[Bip(4'-COOH)][4Pal][Dap][dA][h3Pal(5-CN)])), the pIC50 was 10.44.

With `CC(=O)N1CCN(c2ccc(C[C@@H]3NC(=O)[C@H](CCc4cncc(C#N)c4)NC(=O)[C@@H](C)NC(=O)[C@H](CC(C)C)NC(=O)[C@H](CCCCN)NC(=O)[C@H](Cc4ccc(-c5ccc(C(=O)O)cc5)cc4)NC(=O)CNC(=O)[C@@H](C)N(C)C(=O)[C@H](CC(=O)O)NC(=O)[C@H]([C@@H](C)c4cccc5ccccc45)NC(=O)[C@@H]4C[C@@H](N)CN4C(=O)CNC(=O)[C@H](Cc4ccc(C(=O)O)cc4)NC(=O)[C@H](Cc4c[nH]c5ccccc45)NC3=O)cn2)CC1` [Example 2] (cyclo([X1]W[Phe(4-COOH)]G[Pro(4R-NH2)][1Nal(3S-Me)]D[dNMeA]G[Bip(4'-COOH)]KL[dA][h3Pal(5-CN)])), the pIC50 was 10.66.

As to `CC(=O)N1CCN(c2ccc(C[C@@H]3NC(=O)[C@H](CCc4ccc(O)cc4)NC(=O)[C@@H](C)NC(=O)[C@H](CC(C)C)NC(=O)[C@H](CCCCN)NC(=O)[C@H](Cc4ccc(-c5ccc(C(=O)O)cc5)cc4)NC(=O)CNC(=O)[C@@H](C)N(C)C(=O)[C@H](CC(=O)O)NC(=O)[C@H]([C@@H](C)c4cccc5ccccc45)NC(=O)[C@@H]4C[C@@H](N)CN4C(=O)CNC(=O)[C@H](Cc4ccc(C(=O)O)cc4)NC(=O)[C@H](Cc4c[nH]c5ccccc45)NC3=O)cn2)CC1` [Example 3] (cyclo([X1]W[Phe(4-COOH)]G[Pro(4R-NH2)][1Nal(3S-Me)]D[dNMeA]G[Bip(4'-COOH)]KL[dA][hTyr])), the pIC50 was 10.22.

With `CC(=O)N1CCN(c2ccc(C[C@@H]3NC(=O)[C@H](CCc4cncc(C#N)c4)NC(=O)[C@@H](C)NC(=O)[C@H](CN)NC(=O)[C@H](Cc4c[nH]c5ccccc45)NC(=O)[C@H](Cc4ccc(-c5ccc(C(=O)O)cc5)cc4)NC(=O)CNC(=O)[C@@H](C)N(C)C(=O)[C@H](CC(=O)O)NC(=O)[C@H]([C@@H](C)c4cccc5ccccc45)NC(=O)[C@@H]4C[C@@H](N)CN4C(=O)CNC(=O)[C@H](Cc4ccc(C(=O)O)cc4)NC(=O)[C@H](Cc4c[nH]c5ccccc45)NC3=O)cn2)CC1` [Example 4] (cyclo([X1]W[Phe(4-COOH)]G[Pro(4R-NH2)][1Nal(3S-Me)]D[dNMeA]G[Bip(4'-COOH)]W[Dap][dA][h3Pal(5-CN)])), the pIC50 is 10.36.

`CC(=O)N1CCN(c2ccc(C[C@@H]3NC(=O)[C@H](CCc4ccc(O)cc4)NC(=O)[C@@H](C)NC(=O)[C@H](CN)NC(=O)[C@H](Cc4c[nH]c5ccccc45)NC(=O)[C@H](Cc4ccc(-c5ccc(C(=O)O)cc5)cc4)NC(=O)CNC(=O)[C@@H](C)N(C)C(=O)[C@H](CC(=O)O)NC(=O)[C@H]([C@@H](C)c4cccc5ccccc45)NC(=O)[C@@H]4C[C@@H](N)CN4C(=O)CNC(=O)[C@H](Cc4ccc(C(=O)O)cc4)NC(=O)[C@H](Cc4c[nH]c5ccccc45)NC3=O)cn2)CC1` [Example 5] (cyclo([X1]W[Phe(4-COOH)]G[Pro(4R-NH2)][1Nal(3S-Me)]D[dNMeA]G[Bip(4'-COOH)]W[Dap][dA][hTyr])): the pIC50 is 9.17.

Turning to `CC(=O)N1CCN(c2ccc(C[C@@H]3NC(=O)[C@H](CCc4ccc(O)cc4)NC(=O)[C@@H](C)NC(=O)[C@H](CC(C)C)NC(=O)[C@H](CCCCN)NC(=O)[C@H](Cc4ccc(-c5ccc(C(=O)O)cc5)cc4)NC(=O)CNC(=O)[C@@H](C)N(C)C(=O)[C@H](CC(=O)O)NC(=O)[C@H]([C@@H](C)c4c[nH]c5cccc(F)c45)NC(=O)[C@@H]4C[C@@H](N)CN4C(=O)CNC(=O)[C@H](Cc4ccc(C(=O)O)cc4)NC(=O)[C@H](Cc4c[nH]c5ccccc45)NC3=O)cn2)CC1` [Example 6] (cyclo([X1]W[Phe(4-COOH)]G[Pro(4R-NH2)][Trp(βS-Me,4-F)]D[dNMeA]G[Bip(4'-COOH)]KL[dA][hTyr])), the pIC50 is 10.18.

Regarding `CC(=O)N1CCN(c2ccc(C[C@@H]3NC(=O)[C@H](CCc4ccc(O)cc4)NC(=O)[C@@H](CCN)NC(=O)[C@H](CC(C)C)NC(=O)[C@H](CCCCN)NC(=O)[C@H](Cc4ccc(-c5ccc(C(=O)O)cc5)cc4)NC(=O)CNC(=O)[C@@H](C)N(C)C(=O)[C@H](CC(=O)O)NC(=O)[C@H]([C@@H](C)c4c[nH]c5cccc(F)c45)NC(=O)[C@@H]4C[C@@H](N)CN4C(=O)CNC(=O)[C@H](Cc4ccc(C(=O)O)cc4)NC(=O)[C@H](Cc4c[nH]c5ccccc45)NC3=O)cn2)CC1` [Example 7] (cyclo([X1]W[Phe(4-COOH)]G[Pro(4R-NH2)][Trp(βS-Me,4-F)]D[dNMeA]G[Bip(4'-COOH)]KL[dDab][hTyr])), the negative-log IC50 (pIC50) was 9.87.

Take `CC(=O)N1CCN(c2ccc(C[C@@H]3NC(=O)[C@H](CCc4ccc(O)cc4)NC(=O)[C@@H](CCN)NC(=O)CNC(=O)[C@H](Cc4c[nH]c5ccccc45)NC(=O)[C@H](Cc4ccc(-c5ccc(C(=O)O)cc5)cc4)NC(=O)CNC(=O)[C@@H](C)N(C)C(=O)[C@H](CC(=O)O)NC(=O)[C@H]([C@@H](C)c4c[nH]c5cccc(F)c45)NC(=O)[C@@H]4C[C@@H](N)CN4C(=O)CNC(=O)[C@H](Cc4ccc(C(=O)O)cc4)NC(=O)[C@H](Cc4c[nH]c5ccccc45)NC3=O)cn2)CC1` [Example 8] (cyclo([X1]W[Phe(4-COOH)]G[Pro(4R-NH2)][Trp(βS-Me,4-F)]D[dNMeA]G[Bip(4'-COOH)]WG[dDab][hTyr])): the pIC50 is 9.85.

For `CC(=O)NCCOc1ccc(C[C@@H]2NC(=O)[C@H](CCc3ccc(O)cc3)NC(=O)[C@@H](C)NC(=O)[C@H](CC(C)C)NC(=O)[C@H](CCCCN)NC(=O)[C@H](Cc3ccc(-c4ccc(C(=O)O)cc4)cc3)NC(=O)CNC(=O)[C@@H](C)N(C)C(=O)[C@H](CC(=O)O)NC(=O)[C@H]([C@@H](C)c3c[nH]c4cccc(F)c34)NC(=O)[C@@H]3C[C@@H](N)CN3C(=O)CNC(=O)[C@H](Cc3ccc(C(=O)O)cc3)NC(=O)[C@H](Cc3c[nH]c4ccccc34)NC2=O)cn1` [Example 9] (cyclo([X12]W[Phe(4-COOH)]G[Pro(4R-NH2)][Trp(βS-Me,4-F)]D[dNMeA]G[Bip(4'-COOH)]KL[dA][hTyr])), the negative logarithm of the IC50 (pIC50) is 9.93.

Turning to `C[C@@H]1C(=O)NCC(=O)N[C@@H](Cc2ccc(-c3ccc(C(=O)O)cc3)nc2)C(=O)N[C@@H](Cc2c[nH]c3ccccc23)C(=O)N[C@@H](CN)C(=O)N[C@H](C)C(=O)N[C@@H](CCc2ccc(O)cc2)C(=O)N[C@@H](Cc2ccc(-c3ccc(C(=O)O)cc3)nc2)C(=O)N[C@@H](Cc2c[nH]c3ccccc23)C(=O)N[C@@H](Cc2ccc(C(=O)O)cc2)C(=O)NCC(=O)N2C[C@H](N)C[C@H]2C(=O)N[C@@H]([C@@H](C)c2cccc3ccccc23)C(=O)N[C@@H](CC(=O)O)C(=O)N1C` [Example 10] (cyclo([X2]W[Phe(4-COOH)]G[Pro(4R-NH2)][1Nal(3S-Me)]D[dNMeA]G[X2]W[Dap][dA][hTyr])), the negative logarithm of the IC50 (pIC50) is 9.59.

As for `C[C@@H]1C(=O)NCC(=O)N[C@@H](Cc2ccc(-c3ccc(C(=O)O)cc3)cc2)C(=O)N[C@@H](Cc2c[nH]c3ccccc23)C(=O)N[C@@H](CN)C(=O)N[C@H](C)C(=O)N[C@@H](CCc2ccc(O)cc2)C(=O)N[C@@H](Cc2ccc(-c3ccc(C(=O)O)cc3)nc2)C(=O)N[C@@H](Cc2c[nH]c3ccccc23)C(=O)N[C@@H](Cc2ccc(C(=O)O)cc2)C(=O)NCC(=O)N2C[C@H](N)C[C@H]2C(=O)N[C@@H]([C@@H](C)c2cccc3ccccc23)C(=O)N[C@@H](CC(=O)O)C(=O)N1C` [Example 11] (cyclo([X2]W[Phe(4-COOH)]G[Pro(4R-NH2)][1Nal(3S-Me)]D[dNMeA]G[Bip(4'-COOH)]W[Dap][dA][hTyr])), the negative-log IC50 (pIC50) is 10.04.

`C[C@@H]1C(=O)NCC(=O)N[C@@H](Cc2ccc(-c3ccc(C(=O)O)cc3)nc2)C(=O)N[C@@H](Cc2c[nH]c3ccccc23)C(=O)N[C@@H](CN)C(=O)N[C@H](C)C(=O)N[C@@H](CCc2ccc(O)cc2)C(=O)N[C@@H](Cc2ccc(-c3ccc(C(=O)O)cc3)cc2)C(=O)N[C@@H](Cc2c[nH]c3ccccc23)C(=O)N[C@@H](Cc2ccc(C(=O)O)cc2)C(=O)NCC(=O)N2C[C@H](N)C[C@H]2C(=O)N[C@@H]([C@@H](C)c2cccc3ccccc23)C(=O)N[C@@H](CC(=O)O)C(=O)N1C` [Example 12] (cyclo([Bip(4'-COOH)]W[Phe(4-COOH)]G[Pro(4R-NH2)][1Nal(3S-Me)]D[dNMeA]G[X2]W[Dap][dA][hTyr])): the pIC50 was 10.26.

A word on the pIC50: it is the negative decadic logarithm of the IC50, by convention in mol/L.
